Assay results as given in patent US11445724B2, “Insecticidal compounds” (SYNGENTA PARTICIPATIONS AG, priority 2013, dated 2022).

Experiments:
Format in all cases: in vivo
[1] = tested on: Diabrotica balteata (Corn root worm); experiment: Diabrotica balteata (Corn root worm) larval mortality, artificial diet in 24-well MTP; details: 120 h, application rate 200 ppm (concentration in well 18 ppm), L2 larvae, larval mortality after 5 days
[2] = tested on: Myzus persicae (Green peach aphid); experiment: Myzus persicae (Green peach aphid) mortality, sprayed sunflower leaf discs; details: foliar, 144 h, 200 ppm spray on sunflower leaf discs, mixed ages, mortality 6 DAT
[3] = tested on: Myzus persicae (Green peach aphid); experiment: Myzus persicae (Green peach aphid) mortality, test compounds mixed with Sucrose solution under Parafilm; details: 120 h, 12.5 ppm in Sucrose solution, infested pea seedlings on Parafilm, mortality 5 days after infestation
[4] = tested on: Plutella xylostella (Diamond back moth); experiment: Plutella xylostella (Diamond back moth) larval mortality, artificial diet in 24-well MTP; details: 144 h, application rate 200 ppm (concentration in well 18 ppm), L2 larvae, larval mortality after 6 days
[5] = tested on: Spodoptera littoralis (Egyptian cotton leafworm); experiment: Spodoptera littoralis (Egyptian cotton leafworm) mortality, sprayed cotton leaf discs; details: foliar, 72 h, 200 ppm spray on cotton leaf discs, L1 larvae, mortality 3 DAT
[6] = tested on: Tetranychus urticae (Two-spotted spider mite); experiment: Tetranychus urticae (Two-spotted spider mite) mortality, sprayed bean leaf discs; details: foliar, 192 h, 200 ppm spray on bean leaf discs, mixed ages, egg, larval and adult mortality after 8 days
[7] = tested on: Thrips tabaci (Onion thrips); experiment: Thrips tabaci (Onion thrips) mortality, sprayed sunflower leaf discs; details: foliar, 168 h, 200 ppm spray on sunflower leaf discs, mixed ages, mortality after 7 days

Cc1cc(F)ccc1C(=O)Nc1cccc(C(=O)Nc2c(Cl)cc(C(F)(C(F)(F)F)C(F)(F)F)cc2OC(F)F)c1F [Compound 53]
≥ 80%: pest or weed control at 200 ppm [1] | pest or weed control at 200 ppm [2] | pest or weed control at 12.5 ppm [3] | pest or weed control at 200 ppm [4] | pest or weed control at 200 ppm [5] | pest or weed control at 200 ppm [6] | pest or weed control at 200 ppm [7]

COc1c(NC(=O)c2ccc(C(F)(F)F)cc2)cccc1C(=O)Nc1c(Br)cc(C(F)(C(F)(F)F)C(F)(F)F)cc1OC(F)F [Compound 54]
≥ 80%: pest or weed control at 200 ppm [1] | pest or weed control at 200 ppm [2] | pest or weed control at 12.5 ppm [3] | pest or weed control at 200 ppm [4] | pest or weed control at 200 ppm [5] | pest or weed control at 200 ppm [6] | pest or weed control at 200 ppm [7]

O=C(Nc1cccc(C(=O)Nc2c(Cl)cc(C(F)(C(F)(F)F)C(F)(F)F)cc2OC(F)F)c1F)c1ccc([N+](=O)[O-])cc1Cl [Compound 57]
≥ 80%: pest or weed control at 200 ppm [1] | pest or weed control at 200 ppm [2] | pest or weed control at 12.5 ppm [3] | pest or weed control at 200 ppm [4] | pest or weed control at 200 ppm [5] | pest or weed control at 200 ppm [6] | pest or weed control at 200 ppm [7]

O=C(Nc1cccc(C(=O)Nc2c(Cl)cc(C(F)(C(F)(F)F)C(F)(F)F)cc2OC(F)F)c1F)c1ccc(OC(F)(F)F)cc1 [Compound 60]
≥ 80%: pest or weed control at 200 ppm [1] | pest or weed control at 200 ppm [2] | pest or weed control at 12.5 ppm [3] | pest or weed control at 200 ppm [4] | pest or weed control at 200 ppm [5] | pest or weed control at 200 ppm [6] | pest or weed control at 200 ppm [7]

COc1c(NC(=O)c2ccc(F)cc2)cccc1C(=O)Nc1c(Br)cc(C(F)(C(F)(F)F)C(F)(F)F)cc1OC(F)F [Compound 61]
≥ 80%: pest or weed control at 200 ppm [1] | pest or weed control at 200 ppm [2] | pest or weed control at 12.5 ppm [3] | pest or weed control at 200 ppm [4] | pest or weed control at 200 ppm [5] | pest or weed control at 200 ppm [6] | pest or weed control at 200 ppm [7]

O=C(Nc1cccc(C(=O)Nc2c(Cl)cc(C(F)(C(F)(F)F)C(F)(F)F)cc2OC(F)F)c1F)c1ccc(C(F)(F)F)cc1 [Compound 64]
≥ 80%: pest or weed control at 200 ppm [1] | pest or weed control at 200 ppm [2] | pest or weed control at 12.5 ppm [3] | pest or weed control at 200 ppm [4] | pest or weed control at 200 ppm [5] | pest or weed control at 200 ppm [6] | pest or weed control at 200 ppm [7]

COc1c(NC(=O)c2ccc(F)cc2Cl)cccc1C(=O)Nc1c(Br)cc(C(F)(C(F)(F)F)C(F)(F)F)cc1OC(F)F [Compound 66]
≥ 80%: pest or weed control at 200 ppm [1] | pest or weed control at 200 ppm [2] | pest or weed control at 12.5 ppm [3] | pest or weed control at 200 ppm [4] | pest or weed control at 200 ppm [5] | pest or weed control at 200 ppm [6] | pest or weed control at 200 ppm [7]

O=C(Nc1cccc(C(=O)Nc2c(Cl)cc(C(F)(C(F)(F)F)C(F)(F)F)cc2OC(F)F)c1F)c1ccccc1 [Compound 68]
≥ 80%: pest or weed control at 200 ppm [1] | pest or weed control at 200 ppm [2] | pest or weed control at 12.5 ppm [3] | pest or weed control at 200 ppm [4] | pest or weed control at 200 ppm [5] | pest or weed control at 200 ppm [6] | pest or weed control at 200 ppm [7]

O=C(Nc1cccc(C(=O)Nc2c(Cl)cc(C(F)(C(F)(F)F)C(F)(F)F)cc2OC(F)F)c1F)c1ccc(F)cc1 [Compound 70]
≥ 80%: pest or weed control at 200 ppm [1] | pest or weed control at 200 ppm [2] | pest or weed control at 12.5 ppm [3] | pest or weed control at 200 ppm [4] | pest or weed control at 200 ppm [5] | pest or weed control at 200 ppm [6] | pest or weed control at 200 ppm [7]

O=C(Nc1cccc(C(=O)Nc2c(Cl)cc(C(F)(C(F)(F)F)C(F)(F)F)cc2OC(F)F)c1F)c1cccc(F)c1F [Compound 76]
≥ 80%: pest or weed control at 200 ppm [1] | pest or weed control at 200 ppm [2] | pest or weed control at 12.5 ppm [3] | pest or weed control at 200 ppm [4] | pest or weed control at 200 ppm [5] | pest or weed control at 200 ppm [6] | pest or weed control at 200 ppm [7]

O=C(Nc1cccc(C(=O)Nc2c(Cl)cc(C(F)(C(F)(F)F)C(F)(F)F)cc2OC(F)F)c1F)c1ccc(F)cc1F [Compound 78]
≥ 80%: pest or weed control at 200 ppm [1] | pest or weed control at 200 ppm [2] | pest or weed control at 12.5 ppm [3] | pest or weed control at 200 ppm [4] | pest or weed control at 200 ppm [5] | pest or weed control at 200 ppm [6] | pest or weed control at 200 ppm [7]

COc1c(NC(=O)c2ccc([N+](=O)[O-])cc2)cccc1C(=O)Nc1c(Cl)cc(C(F)(C(F)(F)F)C(F)(F)F)cc1OC(F)F [Compound 81]
≥ 80%: pest or weed control at 200 ppm [1] | pest or weed control at 200 ppm [2] | pest or weed control at 12.5 ppm [3] | pest or weed control at 200 ppm [4] | pest or weed control at 200 ppm [5] | pest or weed control at 200 ppm [6] | pest or weed control at 200 ppm [7]

O=C(Nc1cccc(C(=O)Nc2c(Br)cc(C(F)(C(F)(F)F)C(F)(F)F)cc2OC(F)F)c1F)c1ccccc1F [Compound 83]
≥ 80%: pest or weed control at 200 ppm [1] | pest or weed control at 200 ppm [2] | pest or weed control at 12.5 ppm [3] | pest or weed control at 200 ppm [4] | pest or weed control at 200 ppm [5] | pest or weed control at 200 ppm [6] | pest or weed control at 200 ppm [7]

COc1c(NC(=O)c2ccc(F)cc2C)cccc1C(=O)Nc1c(Cl)cc(C(F)(C(F)(F)F)C(F)(F)F)cc1OC(F)F [Compound 84]
≥ 80%: pest or weed control at 200 ppm [1] | pest or weed control at 200 ppm [2] | pest or weed control at 12.5 ppm [3] | pest or weed control at 200 ppm [4] | pest or weed control at 200 ppm [5] | pest or weed control at 200 ppm [6] | pest or weed control at 200 ppm [7]

COc1c(NC(=O)c2ccc([N+](=O)[O-])cc2Cl)cccc1C(=O)Nc1c(Cl)cc(C(F)(C(F)(F)F)C(F)(F)F)cc1OC(F)F [Compound 86]
≥ 80%: pest or weed control at 200 ppm [1] | pest or weed control at 200 ppm [2] | pest or weed control at 12.5 ppm [3] | pest or weed control at 200 ppm [4] | pest or weed control at 200 ppm [5] | pest or weed control at 200 ppm [6] | pest or weed control at 200 ppm [7]
